Assay results from patent US20190240379A1, “NOVEL COMPOSITIONS ACTIVE ON ADIPOCYTES” (BIOXIS PHARMACEUTICALS, priority 2016, published 2019).

Tested on: 3T3L1 murine adipocyte line
Procedure: For example, a 2% (w/w) chitosan preparation obtained in example 1 (DA: 2%, Mw: 450000 g·mol^−1, Bioxis Pharmaceuticals S.A.S.) is diluted in a saline solution (NaCl at 300 mOsmol·l^−1) containing 1% (w/w) of acetic acid in a well (in 24-well plates) and then distributed over half of the other wells, dried, rinsed with PBS and then with the culture medium before cell seeding (3T3L1 murine adipocyte line ATCC CL-173™). When the cells are at confluence, differentiation is induced by adding a differentiation medium. The cells are then treated with a small dose of oleic acid (OA, 2.5 μM) for 6 hours. The cells are put back in a culture medium without OA until the next day in order to avoid any background noise from the OA. Proliferation is analysed by phase contrast microscopy (×20): the images are taken at various times (2 days and 5 days post seeding), at an identical position for each well. […] The marking is observed in fluorescence microscopy and quantification carried out by imaging. The imaging and the fluorescence quantification are carried out on a real-time imaging station. The controls are fixed before the induction of differentiation (confluence, DO).

Substance: chitosan
- chitosan concentration with toxic effect on the 3T3L1 line: greater than or equal to 2%
- morphology of the cells: aggressive or even toxic medium
